Experimental data published in article PMC10867212, “Comparative pharmacokinetics of polymyxin B in critically ill elderly patients with extensively drug-resistant gram-negative bacteria infections” (Frontiers in Pharmacology, 2024).
Read-outs that look alike come from different tables or passages of the source. Where a SMILES comes first, the peptide text is derived from it. Bridges are numbered along the chain shown (N, C = ends). [ ]: non-standard residue; d: D form. The star is where a group is joined. X1 = CC[C@H](C)CCCCC(=O)*; Dab = NCC[C@H](N)C(=O)O

Assays:
[1] = Steady-state plasma pharmacokinetics of intravenous polymyxin B in critically ill patients (non-compartmental analysis); assay type: in vivo, human; settings: for Normalized AUCss, 0–24 h: AUC adjusted to a daily dose of 1 mg/kg of TBW; for Cmin / Css, avg (average steady-state plasma concentration) / Cmax / AUC(0-t): HPLC-MS/MS; for Tmax: iv infusion of at least 1 h; for half-life: read-out: Half-time time (converted)
Source text: All adult patients admitted to the participating intensive care unit (ICU) in a teaching hospital between December 2021 and July 2023 were consecutively screened for entry into this prospective observational study. The ICU served a mixed population of medical, surgical, trauma, and neurologic patients. All critically ill patients (≥18 years) were eligible if they received intravenous PMB for more than 3 days (sulfate; PMB injection, Shanghai First Biochemical Pharmaceutical Co., Ltd., China) for the treatment of documented XDR-GNB infections. Exclusion criteria were 1) patients with anuria or who received blood purification therapy or extracorporeal membrane oxygenation during PMB treatment; 2) pregnant women. Informed written consent was obtained from each patient or a legal representative of the family. This study protocol was approved by the human ethics committees in Shandong Provincial Hospital Affiliated to Shandong First Medical University (protocol SWYX: No. 2021-356) and was carried out in accordance with the Declaration of Helsinki (2000) of the World Medical Association.
Patients were enrolled on the first day of intravenous PMB administration. This study continued for 28 days or until discharge from the hospital or death. According to the patient’s age, the enrolled patients were divided into two groups: the elderly group (≥65 years) and the young group (<65 years).
PMB was administrated intravenously with a loading dose of 2.0–2.5 mg/kg and maintenance doses of 1.25–1.5 mg/kg every 12 h, with at least 1 h infusion time. Calculation of both the loading dose and maintenance dose was based on the total body weight (TBW) of the patient. No dose adjustment was performed in patients with renal insufficiency and renal replacement therapy. Concurrent prescription of other potential nephrotoxic drugs, such as vancomycin, aminoglycoside, etc., was avoided as much as possible at any time during PMB treatment in our study. The initiation of PMB treatment as well as the concomitant antibiotics and their duration were at the discretion of the ICU physicians.
For steady-state PK assessment, blood samples were obtained after at least six doses of PMB. In each patient, six to eight blood samples (3 mL) were collected immediately 10 min before the infusion and 30 min and 1, 2, 3, 6, 8, and 12 h after the beginning of infusion in ethylenediaminetetraacetic acid anticoagulant tubes. Blood samples were immediately centrifuged at 3500 g for 10 min, and the plasma samples were collected and stored at −80°C until analysis. The PMB plasma concentrations were quantified by measuring both polymyxin B1 and B2 using validated high-performance liquid chromatography-tandem mass spectrometry.
The primary outcome was steady-state PMB exposure as reflected by AUCss, 0–24 h. Non-compartmental PK analysis was conducted using Phoenix WinNonlin software 8.3 (Certara, United States). The clinical variables were summarized as means with standard deviation for approximately normally distributed continuous variables or medians with interquartile range for non-normally distributed continuous variables and as frequencies and percentages for categorical variables. The normality of all data sets was determined using the Kolmogorov-Smirnov test. Categorical variables were analyzed by the chi-square or Fisher exact test, while continuous variables were analyzed by the two-tailed non-paired Student’s t-test or Mann-Whitney U test. […] All the analyses were performed with the use of the SPSS for Windows statistical program (version 22.0; IBM Corp., Armonk, NY).

[2] = ref Zavascki et al., 2008; Yun et al., 2015; cited from earlier work
Source text: PMB has been reported to accumulate in large quantities in the kidney, much more than in other organs, such as the heart, lungs, and brain. […] Considering that PMB is poorly recovered in urine (less than 1%) ([Zavascki et al., 2008]; [Yun et al., 2015]), it may be filtered from the glomerulus and reabsorbed in the proximal tubule.

[3] = all patients (n = 23), iv 1.25–1.5 mg/kg q12h, steady state, mean ± SD, SD
[4] = elderly group ≥65 years (n = 17), iv 1.25–1.5 mg/kg q12h, steady state, mean ± SD, SD
[5] = young group <65 years (n = 6), iv 1.25–1.5 mg/kg q12h, steady state, mean ± SD, SD

For `CC[C@H](C)CCCCC(=O)N[C@@H](CCN)C(=O)N[C@H](C(=O)N[C@@H](CCN)C(=O)N[C@H]1CCNC(=O)[C@H]([C@@H](C)O)NC(=O)[C@H](CCN)NC(=O)[C@H](CCN)NC(=O)[C@H](CC(C)C)NC(=O)[C@@H](Cc2ccccc2)NC(=O)[C@H](CCN)NC1=O)[C@@H](C)O` [polymyxin B] (X1-[Dab]T[Dab][Dab][Dab][dF]L[Dab][Dab]T; lactam 4-C), the “Normalized AUCss, 0–24 h” value ([1]; all patients (n = 23), steady state, mean ± SD, SD) was 52.31 ± 28.65 mg·h/L, the Cmin [1, 3] was 2.99 ± 1.99 mg/L and the “Css, avg (average steady-state plasma concentration)” value (“Css, avg” below) [1, 3] was 4.20 ± 2.23 mg/L. For the same molecule, the “Normalized AUCss, 0–24 h” value ([1]; elderly group ≥65 years (n = 17), steady state, mean ± SD, SD) was 55.23 ± 28.51 mg·h/L, the Cmax [1, 4] was 9230 ± 2840 ng/mL and the Cmin [1, 4] was 3.11 ± 1.79 mg/L. The “Css, avg” value [1, 4] was 4.32 ± 2.11 mg/L, the “Clearance per TBW” value ([1]; elderly group ≥65 years (n = 17), per total body weight, iv, steady state, non-compartmental, mean ± SD, SD) was 0.036 ± 0.024 L/h/kg and the AUC(0-t) ([1]; human, elderly group ≥65 years (n = 17), iv 1.25–1.5 mg/kg q12h after loading dose, steady state (≥6 doses), non-compartmental, mean ± SD, SD, read-out: AUCss, 0–12 h) was 51800 ± 25300 ng·h/mL. For the same molecule, the Cmax ([1]; human, iv, all patients (n = 23), iv 1.25–1.5 mg/kg q12h, steady state, mean ± SD, SD, read-out: Cmax) was 9410 ± 3120 ng/mL, the AUC(0-t) ([1]; human, iv, all patients (n = 23), iv 1.25–1.5 mg/kg q12h, steady state, non-compartmental, mean ± SD, SD, read-out: AUCss, 0–24 h) was 71900 ± 41800 ng·h/mL and the AUC(0-t) ([1]; human, iv, all patients (n = 23), iv 1.25–1.5 mg/kg q12h after loading dose, steady state (≥6 doses), non-compartmental, mean ± SD, SD, read-out: AUCss, 0–12 h) was 50300 ± 27000 ng·h/mL. It also gave a Tmax ([1]; human, iv, all patients (n = 23), steady state, mean ± SD, SD) of 54.6 ± 29.4 min, a clearance ([1]; human, iv, all patients (n = 23), iv, steady state, non-compartmental, mean ± SD, SD, read-out: Clearance (converted)) of 41.5 mL/min and a Vd ([1]; human, iv, all patients (n = 23), iv, steady state, non-compartmental, mean ± SD, SD, read-out: Volume of distribution) of 24.7 ± 11.7 L. For the same molecule, the clearance ([1]; human, iv, all patients (n = 23), per total body weight, iv, steady state, non-compartmental, mean ± SD, SD, read-out: Clearance per TBW (converted)) was 0.6 mL/min/kg, the Vd ([1]; human, iv, all patients (n = 23), per total body weight, iv, steady state, non-compartmental, mean ± SD, SD, read-out: Volume of distribution per TBW) was 0.37 ± 0.17 L/kg and the AUC(0-t) ([1]; human, iv, elderly group ≥65 years (n = 17), iv 1.25–1.5 mg/kg q12h, steady state, non-compartmental, mean ± SD, SD, read-out: AUCss, 0–24 h) was 76200 ± 41800 ng·h/mL. The Tmax ([1]; human, iv, elderly group ≥65 years (n = 17), steady state, mean ± SD, SD) was 56.5 ± 33.6 min, the clearance ([1]; human, iv, elderly group ≥65 years (n = 17), iv, steady state, non-compartmental, mean ± SD, SD, read-out: Clearance (converted)) was 39.5 mL/min and the half-life ([1]; human, iv, elderly group ≥65 years (n = 17), iv, steady state, non-compartmental, mean ± SD, SD) was 673 ± 323 min. For the same molecule, the Vd ([1]; human, iv, elderly group ≥65 years (n = 17), iv, steady state, non-compartmental, mean ± SD, SD, read-out: Volume of distribution) was 25.5 ± 12.9 L, the Vd ([1]; human, iv, elderly group ≥65 years (n = 17), per total body weight, iv, steady state, non-compartmental, mean ± SD, SD, read-out: Volume of distribution per TBW) was 0.4 ± 0.19 L/kg and the Cmax ([1]; human, iv, young group <65 years (n = 6), iv 1.25–1.5 mg/kg q12h, steady state, mean ± SD, SD, read-out: Cmax) was 9890 ± 4070 ng/mL. It also gave an AUC(0-t) ([1]; human, iv, young group <65 years (n = 6), iv 1.25–1.5 mg/kg q12h, steady state, non-compartmental, mean ± SD, SD, read-out: AUCss, 0–24 h) of 59500 ± 43100 ng·h/mL, a Tmax ([1]; human, iv, young group <65 years (n = 6), steady state, mean ± SD, SD) of 49.8 ± 15.6 min and a clearance ([1]; human, iv, young group <65 years (n = 6), iv, steady state, non-compartmental, mean ± SD, SD, read-out: Clearance (converted)) of 47.5 mL/min. For the same molecule, the half-life ([1]; human, iv, young group <65 years (n = 6), iv, steady state, non-compartmental, mean ± SD, SD) was 394 ± 69.6 min, the Vd ([1]; human, iv, young group <65 years (n = 6), iv, steady state, non-compartmental, mean ± SD, SD, read-out: Volume of distribution) was 22.3 ± 7.6 L and the clearance ([1]; human, iv, young group <65 years (n = 6), per total body weight, iv, steady state, non-compartmental, mean ± SD, SD, read-out: Clearance per TBW (converted)) was 0.617 mL/min/kg. For the same molecule, the Vd ([1]; human, iv, young group <65 years (n = 6), per total body weight, iv, steady state, non-compartmental, mean ± SD, SD, read-out: Volume of distribution per TBW) was 0.29 ± 0.09 L/kg, the “AUCss, 0–24 h (range)” value ([1]; range over the critically ill patients (n = 23), steady state) was 11.30 to 151.28 mg·h/L and the “Normalized AUCss, 0–24 h” value ([1]; young group <65 years (n = 6), steady state, mean ± SD, SD) was 44.03 ± 30.00 mg·h/L. For the same molecule, the Cmin [1, 5] was 2.65 ± 2.64 mg/L, the “Css, avg” value [1, 5] was 3.88 ± 2.75 mg/L and the Recovery in urine [2] was “less than 1%”.
